Data on one molecule can be found in publication PMC8438977, “Isolation of bioactive compounds from medicinal plants used in traditional medicine: Rautandiol B, a potential lead compound against Plasmodium falciparum” (BMC Complementary Medicine and Therapies, 2021).

Experiment [1] has as its system Mycobacterium tuberculosis H37Rv (ATCC 27294). Put plainly: Mycobacterium tuberculosis assay (Microplate Alamar Blue Assay, MIC). The experiment is classed as cell-based. Particulars: pure compounds and controls, read-out: MTB H37Rv (MIC μM).
Experiment [2] relates to T. brucei rhodesiense (STIB-900). Put plainly: Anti-trypanosomal assay (Alamar Blue, 72 h). As to conditions: Trypanosoma brucei, RHODESIENSE, 72 h, pure compounds and control; 72 h; read-out: T. br (IC50 μM). The experiment is classed as cell-based, Trypanosoma brucei rhodesiense. The procedure:
T. brucei rhodesiense (STIB-900) was maintained in Minimal Essential Medium (MEM) with Earle’s salts supplemented with 3 g/L sodium bicarbonate, 4.5 g/L glucose, 25 mM HEPES, pH 7.3, 0.05 mM bathocuproinedisulfonic acid disodium salt, 1.5 mM L-cysteine, 1 mM hypoxanthine, 0.16 mM thymidine, 1 mM sodium pyruvate, 0.2 mM 2-mercaptoethanol, 1% MEM non-essential amino acid, and 15% heated fetal bovine serum, at 37 °C in a 5% CO2 incubator. To assay anti-Tbr activity, a modified reported protocol was used. Briefly, 2 × 10^4 T. brucei rhodesiense parasites in 175 μL culture media were incubated with 25 μL of varying concentrations of each compound in a 96-well plate under the same culture conditions. Following 72 h incubation, 20 μL Alamar Blue (a resazurin solution) was added in each well. The mixture was further incubated for 3 h. The fluorescence signals were measured by a spectrofluorometer at ex530/em585 nm.
A general note: The colour change of resazurin is a common sign of viable cells or microbes.

The subject of experiment [3] is Plasmodium falciparum TM4/8.2. Put plainly: Antimalaria assay, [3H] hypoxanthine incorporation, TM4/8.2 strain. The experiment is classed as cell-based. Particulars: read-out: P. f (IC50 μM) TM4/8.2. The procedure:
(§1) Plasmodium falciparum TM4/8.2 and K1CB1 strains were maintained in RPMI 1640 medium supplemented with 8% human serum, 2.5 mM HEPES and 2 g/L sodium bicarbonate. Parasite cultures were incubated at 37 °C in a 3% CO2 incubator. The crude extracts/pure compounds were tested against TM4/8.2 and K1CB1 P. falciparum in vitro by the modified [^3H] hypoxanthine incorporation assay. Briefly, stock solutions of the crude extracts or pure compounds were prepared in DMSO. Various concentrations of the samples were incubated with malaria parasites with a final volume of 225 μL, 1% parasitemia, 1.5% hematocrit, 0.1% dimethylsulfoxide (DMSO) in 96-well plates. Plates were incubated for 16–18 h. Then, 25 μL [^3H]-hypoxanthine solution was added and incubated for 20 h. The parasites were harvested onto a UniFilter-96 GF/B plate (PerkinElmer, USA). The filters in the plates were air-dried, and then 25 μL of liquid scintillation fluid (Microscint, Packard) was added. The radioactivity was then measured using a microplate scintillation counter (TopCount, Packard). The IC50 values of the crude extracts/ pure compounds were determined.

For experiment [4], the system named is Plasmodium falciparum K1CB1. Kind of experiment: Antimalaria assay, [3H] hypoxanthine incorporation, K1CB1 strain. As to conditions: Plasmodium falciparum; pure compounds and controls; strain K1CB1; read-out: P. f (IC50 μM) K1CB1. The experiment is classed as cell-based. The procedure:
as §1

The target in experiment [5] is T1, α-glucosidase (AG) (Saccharomyces cerevisiae, UniProt P53341).
T1 construct: purchased Sigma
Put plainly: biochemical. The arrangement: species or system S. cerevisiae. The procedure:
AGI values of extracts and pure phytochemicals were quantitatively determined in a 96-well plastic plate according to the method described by Nguyen et al.. The enzyme was incubated with the samples dissolved in DMSO for 5 min before adding the substrate. The inhibition was measured spectrophotometrically in 20 mM sodium phosphate buffer pH 6.0 at 37 °C using 3.0 mM p-nitrophenyl α-D-glucopyranoside (Sigma) as the substrate and 0.25 units/mL of AG from S. cerevisiae (Sigma). The absorbance at 405 nm was measured using a microplate reader (BioTek ELx808 microplate reader, USA).

The target of experiment [6] is α-amylase (AA). Kind of experiment: α-amylase inhibitory activity (AAI), starch-iodine assay. Particulars: in 50% DMSO. It counts as biochemical. The procedure: AAI values were determined using a microplate-based starch–iodine assay. Assay reactions were initiated by adding 40 μL of starch (Sigma S-2630) solution (2.0 g/L) and 40 μL of enzyme in 0.1 M phosphate buffer at pH 7.0 to microplate wells. The enzyme was incubated with the samples for 5 min before adding the substrate. To minimize evaporative loss during incubation, a plastic mat was used to cover the microplate. […] Following color development, the absorbance at 580 nm was measured using a microplate reader (Bio-TEK ELx808 microplate reader, USA).

T1 sequence (P53341 whole entry): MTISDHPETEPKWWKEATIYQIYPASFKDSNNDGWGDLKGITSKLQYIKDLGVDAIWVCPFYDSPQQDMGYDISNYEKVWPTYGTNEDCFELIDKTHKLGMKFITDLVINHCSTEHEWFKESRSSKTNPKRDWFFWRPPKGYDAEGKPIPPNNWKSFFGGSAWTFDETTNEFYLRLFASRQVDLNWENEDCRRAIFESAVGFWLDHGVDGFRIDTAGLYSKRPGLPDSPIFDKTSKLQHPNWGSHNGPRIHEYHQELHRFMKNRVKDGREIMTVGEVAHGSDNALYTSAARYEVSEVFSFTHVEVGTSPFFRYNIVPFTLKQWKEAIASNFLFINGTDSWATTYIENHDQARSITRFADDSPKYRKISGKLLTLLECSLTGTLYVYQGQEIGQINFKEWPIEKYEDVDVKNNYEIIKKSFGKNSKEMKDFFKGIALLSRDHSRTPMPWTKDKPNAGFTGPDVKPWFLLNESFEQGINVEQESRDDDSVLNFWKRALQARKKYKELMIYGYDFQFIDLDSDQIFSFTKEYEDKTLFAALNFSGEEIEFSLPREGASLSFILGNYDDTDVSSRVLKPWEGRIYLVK

For orientation: MIC means the lowest concentration that inhibits growth of the organism. In general, inhibition refers to the drop in the measured response relative to a control, in per cent. For `Oc1cc(O)c2c(c1)O[C@H](c1ccc(O)c(O)c1)[C@@H](O)C2` [Compound 3, (+)-catechin], the MIC in experiment [1] was greater than 20 µM. The IC50 was greater than 100 µM in experiment [2]; greater than 100 µM in experiment [3]; greater than 100 µM in experiment [4]; 360 µM in experiment [5] (in 50% DMSO); 2260 µM in experiment [6]. In addition, in experiment [5] (samples 250 μg/mL in 50% DMSO, read-out: % Inhibition (AGI activity)), the inhibition at 250 µg/mL amounted to 97.5 ± 0.6%.
